Results as given in publication PMC10807440, “Engineering Novosphingobium aromaticivorans to produce cis,cis-muconic acid from biomass aromatics” (Applied and Environmental Microbiology, 2023).

Key:
NadCD = target: T1, NadCD (Novosphingobium aromaticivorans, UniProt A4XDW1); assay: PCA to catechol conversion by LCMS; format: biochemical; conditions: 1 mM PCA, 0.1 µM enzyme, crude prFMN-containing E. coli lysate needed, 50 mM HEPES, 150 mM NaCl pH 7.5, room temperature (18 h endpoint assay)
T1 construct: gene Saro_3877; Saro_3877-78 cloned together in pVP302K (8x His tag), expressed in E. coli B834 pRARE2, Ni-NTA purified; with protocatechuate decarboxylase subunit D (4-hydroxybenzoate decarboxylase subunit D-like)
T1 sequence (A4XDW1 1-486): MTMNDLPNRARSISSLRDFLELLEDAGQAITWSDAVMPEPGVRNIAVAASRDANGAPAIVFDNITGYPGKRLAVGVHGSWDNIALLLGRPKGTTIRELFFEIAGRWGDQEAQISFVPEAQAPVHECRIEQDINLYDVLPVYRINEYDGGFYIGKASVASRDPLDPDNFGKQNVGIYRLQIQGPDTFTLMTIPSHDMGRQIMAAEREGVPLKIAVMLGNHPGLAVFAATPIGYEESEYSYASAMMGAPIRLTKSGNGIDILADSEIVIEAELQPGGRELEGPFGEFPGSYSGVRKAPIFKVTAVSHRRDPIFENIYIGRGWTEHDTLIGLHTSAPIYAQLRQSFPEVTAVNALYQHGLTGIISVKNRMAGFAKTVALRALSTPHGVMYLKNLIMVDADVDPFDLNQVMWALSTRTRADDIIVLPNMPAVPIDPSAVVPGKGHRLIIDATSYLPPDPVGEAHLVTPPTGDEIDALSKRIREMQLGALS
T1 sequence (A4XDW2 1-74 partner): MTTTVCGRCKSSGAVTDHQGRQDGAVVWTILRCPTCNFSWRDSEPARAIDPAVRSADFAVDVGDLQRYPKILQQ

NaCatA = target: T2, NaCatA (Novosphingobium aromaticivorans, UniProt A4XFH8); assay: ccMA formation by absorbance at […] nm; format: biochemical; conditions: 100 µM catechol, 0.5 µM enzyme, 50 mM HEPES, 150 mM NaCl pH 7.5, 28°C; O2 co-substrate
T2 construct: gene Saro_3830; pVP302K (8x His tag), expressed in E. coli B834 pRARE2 with Fe(II)SO4, Ni-NTA purified
T2 sequence (A4XFH8 1-298): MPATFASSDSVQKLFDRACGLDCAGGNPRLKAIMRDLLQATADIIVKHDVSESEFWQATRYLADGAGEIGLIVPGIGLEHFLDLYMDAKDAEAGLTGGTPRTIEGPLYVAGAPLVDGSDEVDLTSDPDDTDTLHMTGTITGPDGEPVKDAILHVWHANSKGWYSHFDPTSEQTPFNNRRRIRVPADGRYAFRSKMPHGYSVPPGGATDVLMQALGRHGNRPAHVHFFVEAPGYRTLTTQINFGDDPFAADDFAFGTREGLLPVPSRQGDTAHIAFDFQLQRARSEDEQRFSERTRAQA

For `O=C(O)c1ccc(O)c(O)c1` [PCA], the “PCA to catechol conversion by LCMS” value (NadCD) was “NadCD was mixed with PCA and with the crude E. coli lysate that contained prFMN”.

For `Oc1ccccc1O` [catechol], the “ccMA formation by absorbance at 260 nm” value (NaCatA) was “NaCatA catalyzes the intradiol cleavage of catechol to produce ccMA in vitro”.
